Key:
BG01 cells [1] = test: Sox17 Q-PCR, GSK3 inhibitor on LY 294002 induced DE formation; assay type: cell-based, human; conditions: 60 μM LY 294002; BIO 0.1-5 μM, MeBIO 1-5 μM; 3-4 days
Procedure: BG01 cells were passaged on matrigel using the collagenase/trypsin method as described above and were plated on matrigel-coated chamber slides in CM. After approximately 24 hours, the medium was changed, and the cells were treated with 60 μM LY 294002, BIO, meBIO, or DMSO for approximately 3-4 days. The inhibitor BIO (Dr. Ali Brivanlou) was diluted in DMSO and was used at a concentration of approximately 0.1-5 μM. MeBIO (Dr. Ali Brivanlou) was also diluted in DMSO and used at a concentration of approximately 1-5 μM. Assays were performed in triplicate and are shown as +/−SEM.
Cells were grown in these conditions for approximately 3-4 days with a medium change every 24 hours. Cells were harvested using the collagenase/trypsin method for Q-PCR as described above

BG01 cell line = test: SOX17 and AFP immunofluorescence staining; assay type: cell-based, human
Procedure: Cells to be immunostained were grown on chamber slides, and were rinsed once with 1×PBS and fixed for 10 minutes in 4% PFA/4% sucrose in PBS pH 7.4 at room temperature. They were then rinsed 3× in 1×PBS and blocked in 3% goat serum with 0.1% Triton-X100 in PBS for 1 hour at room temperature. Primary antibodies were diluted in 3% goat serum in PBS and this solution was applied overnight at 4° C. The primary antibodies used were rabbit anti-human AFP (Zymed), used at a 1:50 dilution, and rat anti-human SOX17 (obtained from Cythera, Inc.), used at 1:1000 dilution. Cells were washed for 1 hour with 3 changes of 1×PBS. Secondary antibodies were applied for 2 hours at room temperature. Secondary antibodies used were goat anti-rabbit Alexa Fluor 488 and goat anti-rat Alexa Fluor 594 (Molecular Probes), both at a 1:1000 dilution in 3% goat serum in 1×PBS. Cells were washed for 1 hour with 3 changes of 1×PBS. The chambers were removed and slides were mounted in VectaShield mounting medium with DAPI (Vector).

hESCs = test: Kidney capsule assay of LY 294002 treated hESCs; assay type: in vivo, SCID-beige mice; conditions: relative to LY 294002 treated cells that were not implanted
Procedure: Untreated hESCs or hESCs treated for 4 days with 60 μM LY 294002 were collagenase treated to generate cell aggregates (˜50 cells/aggregate), washed in warm media, then gently resuspended in 2 ml DMEM/F12, 10% FCS and left overnight at 37° C., 10% CO2 to facilitate further aggregation. Approximately 2.5×10^6 cells were injected into the kidney capsule of 5 week old male SCID-beige mice. 6 weeks after transplantation, mice were sacrificed, and the kidneys were removed and fixed in 4% paraformaldehyde. Following fixation, kidneys were embedded in paraffin wax, sectioned and mounted onto glass slides in preparation for H&E and immunostaining. After mounting, slides underwent deparaffinization, rehydration and heat induced epitope retrieval with Trilogy (Cell Marque, CMX-833). Slides were stained using the alkaline phosphatase Vectastain ABC System (Vector Labs, AK-5002) and Vector Red substrate (Vector Labs, SK-5100). […] For fluorescence immunocytochemistry the following secondary antibodies were used; Alexa Fluor 488 goat anti-mouse IgG (Molecular Probes, A11001), Alexa Fluor 594 goat anti-rabbit IgG (Molecular Probes, A11012).

hESC = test: Sox17 Q-PCR, MEF-CM and LY 294002 with signaling inhibitors; assay type: cell-based, human; conditions: proteins approximately 500 ng/ml, SB-43152 approximately 10 μM, SU-5402 approximately 5 μM
Procedure: Sox 17 expression was evaluated by Q-PCR under culture conditions competent to support hESC-DE formation (MEF-CM and LY 294002) in the presence or absence of Chordin (approximately 500 ng/ml), Follistatin (approximately 500 ng/ml), Lefty-A (approximately 500 ng/ml), Noggin (approximately 500 ng/ml), SB-43152 (approximately 10 μM), and SU-5402 (approximately 5 μM). Assays were performed in triplicate and are shown as +/−SEM.

BG01 cells [2] = test: Sox17 Q-PCR, LY 294002 with conditioned medium or TGFβ members; assay type: cell-based, human; conditions: UCM, approximately 4 days
Procedure: BG01 cells were passaged from feeders using the collagenase/trypsin method and were plated on matrigel coated dishes at 1×10^5 cells/35 mm dish in unconditioned hES medium (UCM). After approximately 24 hours, the media was replaced with fresh hES medium or MEF-CM, along with LY 294002, Activin A, or Nodal as shown in FIG. 8A. LY 294002 was used at a concentration of approximately 60 μM; Activin A was used at a concentration of approximately 100 ng/ml; and Nodal was used at a concentration of approximately 1 μg/ml. Cells were treated for approximately 4 days, with a change in medium every 24 hours. Cells were harvested using the collagenase/trypsin method for Q-PCR analysis. Sox-17 Q-PCR was performed as described in Example 3.

## O=C1Nc2cc(Br)ccc2/C1=C1/Nc2ccccc2/C1=N\O [BIO]
BG01 cells [1]
  LY 294002 induced DE formation as determined by Sox17 expression: blocked

## O=c1cc(N2CCOCC2)oc2c(-c3ccccc3)cccc12 [LY 294002]
BG01 cell line; counting 500 cells
  cell population expressing SOX17: 60%
BG01 cell line; of 500 cells counted
  cells expressing SOX17: 296 cells
hESCs
  increase in FABP1 mRNA: 1000 fold
  increase in albumin mRNA: 4500 fold

## NC(=O)c1ccc(-c2nc(-c3ccccn3)c(-c3ccc4c(c3)OCO4)[nH]2)cc1 [SB-43152]
hESC
  LY 294002, MEF-CM dependent Sox17 expression: suppressed

## MeBIO
BG01 cells [1]
  LY 294002 induced DE formation as determined by Sox17 expression: not

B1: Activin A: member of the TGFβ family (protein, UniProt P08476 311-426, looked up)
Inhibin beta A chain: GLECDGKVNICCKKQFFVSFKDIGWNDWIIAPSGYHANYCEGECPSHIAGTSGSSLSFHSTVINHYRMRGHSPFANLKSCCVPTKLRPMSMLYYDDGQNIIKKDIQNMIVEECGCS
BG01 cells [2]; LY 294002 approximately 60 μM plus Activin A approximately 100 ng/ml
  Sox17 expression (fold-increase over untreated): Significant Sox17 expression

B2: Nodal: member of the TGFβ family (protein, UniProt Q96S42 238-347, looked up)
Nodal homolog: HHLPDRSQLCRKVKFQVDFNLIGWGSWIIYPKQYNAYRCEGECPNPVGEEFHPTNHAYIQSLLKRYQPHRVPSTCCAPVKTKPLSMLYVDNGRVLLDHHKDMIVEECGCL
BG01 cells [2]; LY 294002 approximately 60 μM plus Nodal approximately 1 μg/ml
  Sox17 expression (fold-increase over untreated): Significant Sox17 expression

B3: Follistatin: inhibitor of Activin signaling (protein, UniProt P19883 30-344, looked up)
Follistatin: GNCWLRQAKNGRCQVLYKTELSKEECCSTGRLSTSWTEEDVNDNTLFKWMIFNGGAPNCIPCKETCENVDCGPGKKCRMNKKNKPRCVCAPDCSNITWKGPVCGLDGKTYRNECALLKARCKEQPELEVQYQGRCKKTCRDVFCPGSSTCVVDQTNNAYCVTCNRICPEPASSEQYLCGNDGVTYSSACHLRKATCLLGRSIGLAYEGKCIKAKSCEDIQCTGGKKCLWDFKVGRGRCSLCDELCPDSKSDEPVCASDNATYASECAMKEAACSSGVLLEVKHSGSCNSISEDTEEEEEDEDQDYSFPISSILEW
hESC
  LY 294002, MEF-CM dependent Sox17 expression: suppressed
